Results published in patent US20120328735A1, “PROCESS FOR PREPARING CASEIN-DERIVED PEPTIDES BY FERMENTATION OF LACTIC ACID BACTERIA” (priority 2011, published 2012).
Ends that are not written are not given here.

How the values were obtained:
[1] = tested on: scopolamine-induced amnesia; test: Y-shaped maze test, spontaneous alternation behavior, scopolamine-induced amnesia; type: in vivo; conditions: male ddY mice, scopolamine 1 mg/kg s.c.
Method: Male ddY mice (about 7 weeks old) were used (n=15 to 75), and provided with food and water ad libitum. Asn-Ile-Pro-Pro-Leu-Thr-Gln-Thr-Pro-Val-Val-Val-Pro-Pro-Phe-Leu-Gln-Pro-Glu (SEQ ID NO: 1) was used as a test substance in amounts of 0.05 nmol/kg body weight (0.1 μg/kg body weight), 0.5 nmol/kg body weight (1 μg/kg body weight), 1.5 nmol/kg body weight (3 μg/kg body weight), 5 nmol/kg body weight (10 μg/kg body weight), 50 nmol/kg body weight (100 μg/kg body weight), and 500 nmol/kg body weight (1,000 μg/kg body weight). The test substance was administered as a single dose orally to mice 60 minutes before performing a Y-shaped maze test for evaluating spontaneous alternation behavior. Thirty minutes before performing the Y-shaped maze test, scopolamine was subcutaneously administered in an amount of 1 mg/kg body weight into the back to induce brain dysfunction (memory disorder and/or cognition disorder) in mice. In the Y-shaped maze test, as an experiment device, a Y-shaped maze was used in which the length for each arm was 40 cm; the wall height was 12 cm; the floor width was 3 cm; the upper part width was 10 cm; and three arms were connected to each other at an angle of 120°. Each mouse was placed in the end of any of the arms of the Y-shaped maze and allowed to explore freely in the maze over 8 minutes, and the sequence of the arms to which the mouse moved was recorded. The number of movements of the mouse to the arms within the measurement time was counted and used as the total number of entries; in the sequence, the combination in which three different arms were selected in succession (for example, with the three arms respectively called A, B, and C, if the sequence of the aims entered is ABCBACACB, the count is 4 inclusive of overlapping) was investigated, and the count number was used as the number of spontaneous alternation behaviors. The change in spontaneous alternation behavior (%) was calculated by dividing the number of spontaneous alternation behaviors by a number obtained by subtracting 2 from the total number of entries, and multiplying the resultant number by 100, and the percentage was used as an indicator of the spontaneous alternation behavior. […] The measured values were expressed as mean±standard error for each group. The significance of difference between the control group and the scopolamine control group was tested by Student's t-test. The significance of difference between the scopolamine control group and the peptide-administered group was tested by Dunnett's multiple comparison test after one-way analysis of variance.
Male ddY mice (about 7 weeks old) were used (n=15 to 45), and provided with food and water ad libitum. As test substances, Asn-Ile-Pro-Pro-Leu-Thr-Gln-Thr-Pro-Val-Val-Val-Pro-Pro-Phe-Leu-Gln-Pro-Glu (SEQ ID NO: 1) at 50 nmol/kg body weight (100 μg/kg body weight), or […]([…]; SEQ ID NO: 2) at 50 nmol/kg body weight (120 μg/kg body weight), or Ile-Pro-Pro-Leu-Thr-Gln-Thr-Pro-Val-Val-Val-Pro-Pro-Phe-Leu-Gln-Pro-Glu (IPPLTQTPVVVPPFLQPE; SEQ ID NO: 7) at 50 nmol/kg body weight (100 μg/kg body weight), or Asn-Ile-Pro-Pro-Leu-Thr-Gln-Thr-Pro-Val-Val-Val-Pro-Pro-Phe-Leu-Gln-Pro (NIPPLTQTPVVVPPFLQP; SEQ ID NO: 8) at 50 nmol/kg body weight (100 μg/kg body weight), or Thr-Gln-Thr-Pro-Val-Val-Val-Pro-Pro-Phe (TQTPVVVPPF; SEQ ID NO: 9) at 50 nmol/kg body weight (50 μg/kg body weight) were used. The percentage of change in the spontaneous alternation behavior was determined as described in Example 4, and used as an indicator of the spontaneous alternation behavior. The measured values were expressed as mean±standard error for each group. The significance of difference between the control group and the scopolamine control group was tested by Student's t-test. The significance of difference between the scopolamine control group and each peptide-administered group was tested by Dunnett's multiple comparison test after one-way analysis of variance. […]

[2] = tested on: memory retention; test: novel object recognition test for evaluating memory retention; type: in vivo; conditions: male ddY mice; single oral dose 500 nmol/kg body weight (1,000 μg/kg) 60 min before training trial; retention trial 48 hours later; FIG. 5
Method: Male ddY mice (about 7 weeks old) were used (n=14 to 15), and provided with food and water ad libitum. As a test substance, 500 nmol/kg body weight (1,000 μg/kg body weight) of Asn-Ile-Pro-Pro-Leu-Thr-Gln-Thr-Pro-Val-Val-Val-Pro-Pro-Phe-Leu-Gln-Pro-Glu (SEQ ID NO: 1) was used. The test substance was administered as a single dose orally to mice 60 minutes before performing a novel object recognition test for evaluating memory retention. In the novel object recognition test, a 30×30×30 cm box was used as an experiment device. As a conditioning operation, a mouse was placed in an experiment device in which a floorcloth was laid for 5 minutes, and allowed to explore freely in the device. A training trial was performed the day following the conditioning operation. […] Sixty minutes after orally administering the test substance or water, a mouse was placed in the experiment device for 5 minutes, and the time (second) was measured during which the mouse explored by approaching each object to be within 1 cm therefrom. […] (However, the state in which a mouse rides on an object is excluded.) The percentages of the times were determined during which two objects were explored in each of the training trial and the retention trial. The percentage (%) of the exploration time for each object was expressed as mean±standard error for each of the groups. […]

[3] = single oral dose 500 nmol/kg body weight, vs scopolamine control group, FIG. 4, FIG. 7, FIG. 9
[4] = single oral dose 50 nmol/kg body weight, vs scopolamine control group, FIG. 3, FIG. 6

Sequence	amnesia-preventing action (change in spontaneous alternation behavior) [1, 3]	amnesia-preventing action (change in spontaneous alternation behavior) [1, 4]	further results
MHQPHQPLPPTVMFPPQSVL [SEQ ID NO: 16]	shown to have amnesia-preventing actions		
VVVPPFLQPE [SEQ ID NO: 15]	shown to have amnesia-preventing actions		
NIPPLTQTPVVVPPFLQP [SEQ ID NO: 8]		significant difference compared to the scopolamine control group could not be confirmed	
SWMHQPHQPLPPTVMFPPQ [SEQ ID NO: 17]	significant difference could not be confirmed		
NIPPLTQTPVVVPPFLQPE [SEQ ID NO: 1]	shown to have amnesia-preventing actions	shown to have amnesia-preventing actions	amnesia-preventing action (change in spontaneous alternation behavior) ([1]; single oral dose 60 min before test, 0.05 nmol/kg body weight to 500 nmol/kg body weight (0.1 to 1,000 μg/kg), FIG. 2): shown to have an amnesia-preventing action; memory-enhancing action (percentage of exploration time for novel object) [2]: shown to have a memory-enhancing action
TQTPVVVPPFLQPE [SEQ ID NO: 11]		shown to have an amnesia-preventing action	
NIPPLTQTPVVVPPFLQPEVM [SEQ ID NO: 2]		shown to have amnesia-preventing actions	
PLTQTPVVVPPFLQPE [SEQ ID NO: 12]	shown to have amnesia-preventing actions		
LQSWMHQPHQPLPPTVMFPPQSVL [SEQ ID NO: 4]	shown to have amnesia-preventing actions		
PVVVPPFLQPE [SEQ ID NO: 14]	shown to have amnesia-preventing actions		
IPPLTQTPVVVPPFLQPE [SEQ ID NO: 7]		shown to have amnesia-preventing actions	
LTQTPVVVPPFLQPE [SEQ ID NO: 13]	shown to have amnesia-preventing actions		
TQTPVVVPPF [SEQ ID NO: 9]		significant difference compared to the scopolamine control group could not be confirmed	
PPLTQTPVVVPPFLQPE [SEQ ID NO: 10]	shown to have amnesia-preventing actions		
SWMHQPHQPLPPTVMFPPQSVL [SEQ ID NO: 3]	shown to have amnesia-preventing actions		amnesia-preventing action (change in spontaneous alternation behavior) ([1]; single oral dose 150 nmol/kg body weight to 500 nmol/kg body weight (380 to 1,280 μg/kg), FIG. 8): shown to have an amnesia-preventing action
